According to US7812121B2 (priority 2006, dated 2010):

B1: SEQ ID NO: 80: human A2G-GLP2 peptide in murine IgG2a scaffold (protein)
chain: HGDGSFSDEMNTILDNLAARDFINWLIQTKITDGSGGGSGTTVTVSAEPRGPTIKPCPPCKCPAPNAAGGPSVFIFPPKIKDVLMISLSPIVTCVVVDVSEDDPDVQISWFVNNVEVHTAQTQTHREDYNSTLRVVSALPIQHQDWMSGKEFKCKVNNKDLPAPIERTISKPKGSVRAPQVYVLPPPEEEMTKKQVTLTCMVTDFMPEDIYVEWTNNGKTELNYKNTEPVLDSDGSYFMYSKLRVEKKNWVERNSYSCSVVHEGLHNHHTTKSFSRTPGK
modifications: Human A2G-GLP2 peptide in murine IgG2a scaffold

Tests used:
normal mice = experiment: Upper gastrointestinal transit, carmine dye technique; assay type: in vivo; details: 50 μg/mouse daily s.c. for 10 days, 20-minute test period, vs PBS vehicle
Procedure: To test the effects of A2G-GLP-2 on upper gastrointestinal transit in normal mice, mice were randomly assigned to 2 groups (14 animals per test group). Each group received daily subcutaneous injection (total volume […]) of either A2G-GLP-2 peptide (50 μg/mouse) or the phosphate-buffered saline vehicle for 10 consecutive days.
On the day of study, upper gastrointestinal transit was measured using the carmine dye technique. Mice were fed a test meal of 0.25 ml of a 6% (w/v) solution of carmine cochineal powder mixed into 0.5% (w/v) methylcellulose administered intragastrically by an 18 gauge curved feeding tube. Following oral test meal administration, mice were replaced into their home cages. Twenty minutes after marker meal administration, mice were rapidly euthanized by cervical dislocation and the entire gastrointestinal tract was excised starting from the distal colon and working towards the gastric pylorus. […] The linear distance traversed by the carmine dye front through the small intestine was measured together with the total length of the small bowel. Upper gastrointestinal transit was expressed as the percentage of the entire small intestine traversed by the carmine dye front during the 20-minute test period; % small intestine traveled=[distance traversed by dye front through small intestine (cm)/entire small intestine length (cm)×100].

[1] = CD spectra secondary structure; assay type: physicochemical; details: 0.2 mg/mL peptide in PBS, 25° C.
Procedure: The secondary structures of tested peptides were determined using 0.2 mg/mL peptide solutions in PBS. Briefly, CD spectra were collected in triplicate at 1 nm intervals at 25° C. in 0.1 cm path length cell. Secondary structures were determined by fitting of the CD spectra using CD spectra software (CD Spectra Deconvolution software 2.1). All tested peptides contained peaks corresponding to the presence of alpha helices.

CD1 mice = experiment: Mucosal weight gain in small intestine, 10 days daily s.c. dosing; assay type: in vivo; details: 2.5 mg/kg (13.3 nmole), p<0.0001
Description: Afterwards, the mice were euthanized and the small intestines were removed, flushed with saline, and processed as described below.
Specifically, 4 cm sections were harvested: (1) immediately distal to the pylorus (duodenum), (2) starting 2 cm distal of the ligament of Treitz (jejunum), and (3) immediately proximal to the cecum (ileum). The remaining small intestine from ˜6 cm distal of the ligament of Treitz to 4 cm proximal to the cecum was used to prepare mucosal scrapings. From the proximal and distal ends of the remnant, an equal distance was removed until a 15 cm section remained, the remnant was cut longitudinally, rinsed, and the mucosal layer was removed using the short end of a glass microscope slide. The wet weight of the intact intestinal segments and mucosa was measured.

[2] = SEC-SLS solution molecular weight / self-association; assay type: physicochemical; details: PBS (pH 7.5), 1 mg/ml
Procedure: Solution molecular weight of the peptides was measured by SEC-SLS. Briefly, peptide solutions in PBS (pH 7.5) at 0.4 to 2.0 mg/mL were fractionated over a Superdex peptide column (Amersham Pharmacia). The eluted peaks were monitored by static light scattering at 690 nm and solution molecular weight was determined at UV 280 nm using the Astra software package (Wyatt Inc.).

CD-1 mice = experiment: Gastrointestinal transit in post-operative inflammatory ileus; assay type: in vivo; details: 2 mg/kg one hour before surgery, FITC-dextran 48 hr after operation, 45 minutes
Procedure: On the day of study, upper gastrointestinal transit was measured using the FITC-dextran method. This method provides both, a measure of gastrointestinal transit and a readout of the pattern of distribution of the test meal along the gastrointestinal tract. Mice were fed a test meal of […] of FITC-dextran solution (5 mg/ml of 70,000 molecular weight dextran conjugated to fluorescein-isothiocyanate in 0.5% methylcellulose/deionized water) administered intragastrically by an 18 gauge curved feeding tube. Following oral administration of the FITC-dextran test meal, mice were returned to their home cages. It was shown that a 30 min test period was the optimum duration for detecting accelerated transit, while a 45 min test period was optimum for detecting delayed transit. Following the appropriate test period, mice were sacrificed by carbon dioxide exposure. The entire gastrointestinal tract from the lower esophageal sphincter to the terminal colon was removed. […] Aliquots of the cleared supernatant were read in duplicate on a 96-well fluorescence plate reader to quantify the magnitude of the fluorescent signal in each segment of bowel. […] The GC is calculated in the lower panel for statistical comparison. […]
All mice received an oral test meal of FITC-dextran 48 hr after the operation. Gastrointestinal transit was determined 45 minutes after oral feeding. […]

mice = experiment: Myeloperoxidase histochemistry of intestinal muscularis in post-operative inflammatory ileus; assay type: in vivo; details: 2 mg/kg one hour before surgery, tissue 48 hr after operation
Procedure: Myeloperoxidase histochemistry was performed on tissues harvested from the mid-small bowel of the mice 48 hr after the operation.
Briefly, segments of mid-small bowel were collected from the centrifuge tubes described in Example 12. Whole mounts of the muscle layer were prepared by pinning the tissue flat in a Sylgard® lined Petri dish and stretching the tissue to 2 times its length and 1.5 times its width. The mucosa was removed by fine dissection. The muscularis whole mounts were then fixed with 100% ethanol for 1 hr, washed 3 times with PBS, and incubated for 20 min in PBS containing 0.1% hydrogen peroxide and 1 mg/ml Hanker-Yates reagent. Following a second wash with PBS, the whole mounts were mounted on glass slides, cover-slipped, and viewed on an optical microscope. Myeloperoxidase containing leukocytes were counted in 6 to 8 adjacent 200× optical fields of view and the mean cell counts were calculated and recorded.

Row | Molecule | upper gastrointestinal transit (normal mice; listed as A2G-GLP-2) | upper gastrointestinal transit (normal mice; listed as A2G-GLP-2 peptide) | Helix [1] [%] | Random coil [1] [%] | increase in mucosal wet weight (CD1 mice) | SEC-SLS elution / association state of peptides [2] | gastrointestinal transit after abdominal surgery (CD-1 mice; listed as murine A2G GLP-2 mimetibody) | gastrointestinal transit after abdominal surgery (CD-1 mice; listed as murine A2G-GLP-2 mimetibody) | number of MPO-positive leukocytes infiltrating small intestinal muscle layer (mice)
1 | CC[C@H](C)[C@H](NC(=O)[C@H](Cc1ccccc1)NC(=O)[C@H](CC(=O)O)NC(=O)[C@H](CCCNC(=N)N)NC(=O)[C@H](C)NC(=O)[C@H](C)NC(=O)[C@H](CC(C)C)NC(=O)[C@H](CC(N)=O)NC(=O)[C@H](CC(=O)O)NC(=O)[C@H](CC(C)C)NC(=O)[C@@H](NC(=O)[C@@H](NC(=O)[C@H](CC(N)=O)NC(=O)[C@H](CCSC)NC(=O)[C@H](CCC(=O)O)NC(=O)[C@H](CC(=O)O)NC(=O)[C@H](CO)NC(=O)[C@H](Cc1ccccc1)NC(=O)[C@H](CO)NC(=O)CNC(=O)[C@H](CC(=O)O)NC(=O)CNC(=O)[C@@H](N)Cc1c[nH]cn1)[C@@H](C)O)[C@@H](C)CC)C(=O)N[C@@H](CC(N)=O)C(=O)N[C@@H](Cc1c[nH]c2ccccc12)C(=O)N[C@@H](CC(C)C)C(=O)N[C@H](C(=O)N[C@@H](CCC(N)=O)C(=O)N[C@H](C(=O)N[C@@H](CCCCN)C(=O)N[C@H](C(=O)N[C@H](C(=O)N[C@@H](CC(=O)O)C(=O)O)[C@@H](C)O)[C@@H](C)CC)[C@@H](C)O)[C@@H](C)CC [SEQ ID NO: 3, GLP-2(A2G), reference compound] | acceleration of upper gastrointestinal transit | significant acceleration of intestinal transit | 20.7 | 37.1 | statistically significant increase | overlapping dimer and monomer peaks | – | – | –
2 | B1 | – | – | – | – | – | – | significant attenuation of the delay in gastrointestinal transit | significant improvement in transit | significantly reduced the number of infiltrating cells
